Test results reported in patent publication EP0326331B1, “Substituted quinolines and cinnolines” (Dow AgroSciences LLC, priority 1988, dated 1989).

Assays:
Format in all cases: in vivo
corn rootworm = experiment: Mite/insect screen, CRW; conditions: percent mortality, read-out: CRW RESULTS %; for mortality at 12 ppm: CRW RATE 12.00 PPM; for mortality at 24 ppm: CRW RATE 24.00 PPM
Procedure, shortened: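 Compounds were dissolved in 50:50 acetone/alcohol containing sulfonate/nonionic emulsifier blends (23 g/L plus 13 g/L), then diluted with water to the test concentrations. Percent mortality was scored after standard exposure periods.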

[1] = tested on: Erysiphe graminis tritici (powdery mildew); experiment: Test 1 greenhouse foliar spray screen, powdery mildew on wheat; conditions: disease control rating, foliar spray on wheat, 400 ppm (+++ at 100 ppm)
[2] = tested on: Botrytis cinerea (gray mold); experiment: Test 1 greenhouse foliar spray screen, gray mold on grape berries; conditions: disease control rating, spray on grape berries, 400 ppm (+++ at 100 ppm)
[3] = tested on: Venturia inaequalis (apple scab); experiment: Test 1 greenhouse foliar spray screen, apple scab on apple seedling; conditions: disease control rating, foliar spray on apple seedling, 400 ppm (+++ at 100 ppm)
[4] = tested on: Twospotted spider mites (Tetranychus urticae Koch); experiment: Mite/insect screen, SM; conditions: Tetranychus urticae, percent mortality, SAW, read-out: SM RESULTS %; for mortality at 200 ppm: SM & MA RATE 200 PPM; for mortality at 400 ppm: SM & MA RATE 400 PPM
Procedure, shortened: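 Activity is expressed as percent mortality at the indicated spray concentrations. Plants are sprayed to runoff on upper and lower leaf surfaces with aqueous dilutions of an acetone/alcohol emulsifiable formulation, then dried for one hour.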

[5] = tested on: southern armyworm (Spodopetra eridania Cramer); experiment: Mite/insect screen, SAW; conditions: Spodoptera eridania, percent mortality, SAW, read-out: SAW RESULTS %; for mortality at 200 ppm: SM & MA RATE 200 PPM; for mortality at 400 ppm: SM & MA RATE 400 PPM
Procedure, shortened: (§1)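 Compounds dissolved in 50:50 acetone/alcohol containing sulfonate/nonionic emulsifier blends, then diluted with water to the indicated concentrations. Leaves sprayed on both surfaces to runoff at 10 psi and dried one hour. Percent mortality scored after standard exposure periods.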

[6] = tested on: Pseudoperonospora cubensis (downy mildew); experiment: Test 1 greenhouse foliar spray screen, downy mildew on squash; conditions: disease control rating, foliar spray on squash, 400 ppm (+++ at 100 ppm)
[7] = tested on: Pyricularia oryzae (rice blast); experiment: whole plant or invertebrate; conditions: disease control rating, foliar spray on rice, 400 ppm (+++ at 100 ppm)
[8] = tested on: Puccinia recondita tritici (leaf rust); experiment: Test 1 greenhouse foliar spray screen, leaf rust on wheat; conditions: disease control rating, foliar spray on wheat, 400 ppm (+++ at 100 ppm)
[9] = tested on: Cercospora beticola (leaf spot); experiment: Test 1 greenhouse foliar spray screen, leaf spot on sugar beet; conditions: disease control rating, foliar spray on sugar beet, 400 ppm (+++ at 100 ppm)
[10] = tested on: melon aphids (Aphis gossypii Glover); experiment: Mite/insect screen, MA; conditions: Aphis gossypii, percent mortality, SAW, read-out: MA RESULTS %; for mortality at 200 ppm: SM & MA RATE 200 PPM; for mortality at 400 ppm: SM & MA RATE 400 PPM
Procedure, shortened: as §1

[11] = tested on: Septoria tritici (leaf blotch); experiment: Test 1 greenhouse foliar spray screen, leaf blotch on wheat; conditions: disease control rating, foliar spray on wheat, 400 ppm (+++ at 100 ppm)

SMILES | mortality at 12 ppm (corn rootworm) [%] | POWD MDEW [1] | GRAY MOLD [2] | APPL SCAB [3] | mortality at 200 ppm [4] [%] | mortality at 200 ppm [5] [%] | DOWN MDEW [6] | RICE BLAST [7] | LEAF RUST [8] | LEAF SPOT [9] | mortality at 200 ppm [10] [%] | LEAF BLOT [11] | mortality at 24 ppm (corn rootworm) [%] | mortality at 400 ppm [4] [%] | mortality at 400 ppm [5] [%] | mortality at 400 ppm [10] [%]
c1ccc(C2CC2Nc2ccnc3ccccc23)cc1 (stereo not drawn) [Example 120, N-(2-phenylcyclopropyl)-4-quinolinamine] | 0 | - (0-19% control at 400 ppm) | - (0-19% control at 400 ppm) | - (0-19% control at 400 ppm) | 0 | 0 | ++ (90-100% control at 400 ppm) | + (20-89% control at 400 ppm) | + (20-89% control at 400 ppm) | +++ (90-100% control at 100 ppm) | 0 | - (0-19% control at 400 ppm) | – | – | – | –
CC(=O)N(CCc1ccc(C)cc1)c1ccnc2ccc(C)cc12 [Example 122, N-[2-(4-methylphenyl)ethyl]-N-(6-methyl-4-quinolinyl)acetamide] | 0 | - (0-19% control at 400 ppm) | - (0-19% control at 400 ppm) | - (0-19% control at 400 ppm) | 0 | 0 | ++ (90-100% control at 400 ppm) | ++ (90-100% control at 400 ppm) | + (20-89% control at 400 ppm) | - (0-19% control at 400 ppm) | 0 | - (0-19% control at 400 ppm) | 0 | 0 | 0 | 0
Fc1cccc2c(NC3CC3c3ccccc3)ccnc12 (stereo not drawn) [Example 123, 8-fluoro-N-(2-phenylcyclopropyl)-4-quinolinamine] | 0 | - (0-19% control at 400 ppm) | - (0-19% control at 400 ppm) | - (0-19% control at 400 ppm) | 0 | 0 | +++ (90-100% control at 100 ppm) | + (20-89% control at 400 ppm) | + (20-89% control at 400 ppm) | - (0-19% control at 400 ppm) | 0 | - (0-19% control at 400 ppm) | – | – | – | –
CC(=O)N(CCc1ccc(Cl)cc1)c1ccnc2cc(Cl)ccc12 [Example 124, N-[2-(4-chlorophenyl)ethyl]-N-(7-chloro-4-quinolinyl)acetamide] | 0 | +++ (90-100% control at 100 ppm) | - (0-19% control at 400 ppm) | - (0-19% control at 400 ppm) | 0 | 0 | - (0-19% control at 400 ppm) | + (20-89% control at 400 ppm) | + (20-89% control at 400 ppm) | - (0-19% control at 400 ppm) | 0 | - (0-19% control at 400 ppm) | 0 | 0 | 0 | 0
CC(=O)N(CCc1cccc(C(F)(F)F)c1)c1ccnc2cc(Cl)ccc12 [Example 126, N-(7-chloro-4-quinolinyl)-N-[2-[3-(trifluoromethyl)phenyl]ethyl]acetamide] | 0 | ++ (90-100% control at 400 ppm) | - (0-19% control at 400 ppm) | - (0-19% control at 400 ppm) | 0 | 0 | + (20-89% control at 400 ppm) | +++ (90-100% control at 100 ppm) | + (20-89% control at 400 ppm) | - (0-19% control at 400 ppm) | 0 | + (20-89% control at 400 ppm) | 0 | 0 | 0 | 0
CC(=O)N(CCc1ccc(C(C)C)cc1)c1ccnc2c(F)cccc12 [Example 129, N-[2-[4-(i-propyl)phenyl]ethyl]-N-(8-fluoro-4-quinolinyl)acetamide] | 0 | - (0-19% control at 400 ppm) | - (0-19% control at 400 ppm) | + (20-89% control at 400 ppm) | 0 | 0 | + (20-89% control at 400 ppm) | + (20-89% control at 400 ppm) | ++ (90-100% control at 400 ppm) | - (0-19% control at 400 ppm) | 0 | - (0-19% control at 400 ppm) | 0 | 0 | 0 | 0
Fc1cccc2c(NCCCc3ccc(Cl)cc3)ccnc12 [Example 135, N-[3-(4-chlorophenyl)propyl]-8-fluoro-4-quinolinamine] | 0 | - (0-19% control at 400 ppm) | - (0-19% control at 400 ppm) | - (0-19% control at 400 ppm) | 0 | 0 | +++ (90-100% control at 100 ppm) | - (0-19% control at 400 ppm) | - (0-19% control at 400 ppm) | - (0-19% control at 400 ppm) | 0 | + (20-89% control at 400 ppm) | 0 | 0 | 0 | 0
Clc1ccc(CCCNc2ccnc3cc(Cl)ccc23)cc1 [Example 136, N-[3-(4-chlorophenyl)propyl]-7-chloro-4-quinolinamine] | 0 | + (20-89% control at 400 ppm) | - (0-19% control at 400 ppm) | - (0-19% control at 400 ppm) | 0 | 0 | +++ (90-100% control at 100 ppm) | - (0-19% control at 400 ppm) | - (0-19% control at 400 ppm) | - (0-19% control at 400 ppm) | 0 | - (0-19% control at 400 ppm) | 0 | 0 | 0 | 0
